Reference: patent US11576887B2, “Nitro-oleic acid controlled release platform to induce regional angiogenesis in abdominal wall repair” (University of Pittsburgh—Of the Commonwealth System of …, priority 2017, dated 2023)
Entries after “also recorded” stand apart in the source; their conditions may differ.

Key:
[1] = tested on: rat abdominal wall partial thickness defect; assay: Blood vessel morphological assessment (MT staining, CD31/αSMA immunofluorescence) of 8 wk explants; format: in vivo, Sprague-Dawley rats; conditions: rat abdominal wall defect model, 8 wk end-point
Text: Adult female Sprague-Dawley rats 10-12 wk old, ˜250 g in weight (Harlan Sprague Dawley Inc., Indianapolis, Ind., USA) were used for the abdominal wall repair procedure. The experiment was designed to assess the effects of NO2-FA controlled release on angiogenesis. Therefore, a partial wall defect was preferred to a full wall defect model, this enabled evaluation of the impact of drug release on the tissue underneath the abdominal wall patch. The surgical protocol was adapted from a procedure previously established Lai et al. Peritoneal Regeneration Induced by an Acellular Bovine Pericardial Patch in the Repair of Abdominal Wall Defects. Journal of Surgical Research 127, 85, 2005. In brief, inhalation of 1.25-2.5% (maintenance-induction) isoflurane with 100% oxygen was adopted as anesthetic. The skin was shaved and the surgical field was prepared by sterilization with povidone-iodine solution, the rats were positioned in dorsal recumbency on a heating blanket, the operating environment was kept sterile during the procedure. […]
Regional angiogenesis was investigated by combining morphological with topological information. Morphological assessment included quantification of blood vessel/mm^2 and vessel type and was performed with two distinct experiments: histological (FIG. 7, 9) and immunofluorescence assessment (FIG. 8). […]

[2] = NO2-OA controlled release in vitro from PLGA microparticles and scaffolds in lipase solution; format: physicochemical
Description: NO2-OA in microparticles and scaffolds was extracted by dissolving the samples in 200 μL, HFIP with 0.5 pmol NO2−^[13C18]OA internal standard, and extracted three times with 1 mL methanol, each time vortexing and centrifuging at 15,000 xg for 10 min at 4° C. Then, the collected methanol was dried under a stream of nitrogen, reconstituted in 100 μL methanol and analyzed by high performance liquid chromatography-electrospray ionization-tandem mass spectrometry (HPLC-ESI-MS/MS). Controlled release (n=3) of NO2-OA in microparticles (FIG. 1D) and scaffolds (FIGS. 3B) was studied in 50 mM phosphate buffer, pH 7.4 with 0.2 mg/mL porcine lipase at 37° C. Aliquots were collected at various time points, spiked with 15 pmol NO2−^[13C18]OA, 1 mL acetonitrile was added and then, samples were vortexed, centrifuged and analyzed by HPLC-ESI-MS/MS. At each time point a fresh incubating solution was utilized.
Analysis of NO2-OA was performed by HPLC-ESI-MS/MS. […] NO2-OA was analyzed in negative mode with the following parameters: declustering potential (DP)—75V, collision energy (CE)—35 eV, desolvation temperature of 700° C., and a multiple reaction monitoring (MRM) transition 326.3/46. Quantification of NO2-OA in samples was performed by stable isotopic dilution analysis using a NO2-OA calibration curve in the presence of NO2-[^13C18]OA internal standard (MRM 344.3/46).

[3] = tested on: rat abdominal wall partial thickness defect; assay: Rat abdominal wall partial thickness defect repair, histological assessment of 8 wk explants; format: in vivo, Sprague-Dawley rats
Description: At 8 wk post-implantation samples were retrieved, fixed in 10% formalin solution for ≥24 h, embedded in paraffin and serially sectioned into specimens 10 μm in thickness. Next, hematoxylin and eosin (H&E) and Masson' trichrome (MT) staining of pre implantation scaffolds and explants were utilized to evaluate: polymeric fiber volume, newly formed tissue, cellular infiltration, and scar area (FIG. 4-FIG. 5). In order to assess the foreign body response a custom-made algorithm, developed in Matlab (Mathwork, Natick Mass.), was utilized to segment and quantify collagen rich areas (FIG. 4G-4H). The algorithm is based on a two-phase iterative process known as k means clustering. In step one, given an integer k and an array of data, k cluster centroids were identified minimizing the total squared Euclidean distance between each pixel and its closest RGB centroid. With k=4, the algorithm segmented each image into 4 color groups corresponding to background, muscle tissue, collagen or de-novo ECM, and scaffold.
At the macroscopic scale, cross sections were utilized to quantify explant thickness. NIH Image J was utilized to identify the explant central line, draw equi-spaced segments (n=10) perpendicular to this line intersecting the abdominal wall border, and calculate the mean of their lengths. This measure was coupled with in situ explant visual inspection (FIG. 6). […]

NO2-OA release profile from PLGA microparticles ([2]; 50 mM phosphate buffer pH 7.4, 0.2 mg/mL porcine lipase, 37° C, effect of microparticle size): sigmoidal | duration of controlled NO2-OA release from PLGA microparticles ([2]; NO2-OA (1mM), particle size 1-50 μm range): up to 7 days
Compound: CCCCCCCC/C(=C\CCCCCCCC(=O)O)[N+](=O)[O-] [NO2-OA, 10-nitro-9-trans-octadecenoic acid]
regional angiogenesis / neovascularization [1]: additional effect; also recorded: promotes neovascularization; also recorded: significantly improved regional angiogenesis; also recorded: significantly enhanced regional angiogenesis | abdominal wall thickness of explants ([3]; 8 wk, compared with healthy native rat abdominal wall): significantly increased wall thickness | fibrotic response ([3]; rat abdominal wall defect model): significantly reduce fibrotic response
